Results as given in ChEMBL document CHEMBL5291721, “A preclinical secondary pharmacology resource illuminates target-adverse drug reaction associations of marketed drugs” (Nat Commun, 2023).

What was measured:
[1] = biological target: Voltage-gated inwardly rectifying potassium channel KCNH2 (Homo sapiens, UniProt Q12809); assay type: functional; conditions: read-out: AC50
Thromboxane A2 receptor = biological target: T1, Thromboxane A2 receptor (Homo sapiens, UniProt P21731); assay type: functional, cell-based
T1 sequence (P21731 whole entry): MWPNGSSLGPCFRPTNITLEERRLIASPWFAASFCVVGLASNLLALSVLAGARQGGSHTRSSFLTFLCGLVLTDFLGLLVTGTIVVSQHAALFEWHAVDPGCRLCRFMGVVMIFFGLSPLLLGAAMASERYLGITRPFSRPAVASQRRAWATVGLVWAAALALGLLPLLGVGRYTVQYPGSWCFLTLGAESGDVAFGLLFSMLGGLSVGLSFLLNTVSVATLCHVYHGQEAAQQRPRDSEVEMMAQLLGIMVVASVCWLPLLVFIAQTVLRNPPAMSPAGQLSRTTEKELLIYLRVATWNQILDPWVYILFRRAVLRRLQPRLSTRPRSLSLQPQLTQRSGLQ

[2] = biological target: 3',5'-cyclic-AMP phosphodiesterase 4A (Homo sapiens, UniProt P27815); assay type: functional
[3] = biological target: cGMP-inhibited 3',5'-cyclic phosphodiesterase 3A (Homo sapiens, UniProt Q14432); assay type: functional
[4] = biological target: T2, Amine oxidase [flavin-containing] A (Homo sapiens, UniProt P21397); assay type: functional
T2 sequence (P21397 whole entry): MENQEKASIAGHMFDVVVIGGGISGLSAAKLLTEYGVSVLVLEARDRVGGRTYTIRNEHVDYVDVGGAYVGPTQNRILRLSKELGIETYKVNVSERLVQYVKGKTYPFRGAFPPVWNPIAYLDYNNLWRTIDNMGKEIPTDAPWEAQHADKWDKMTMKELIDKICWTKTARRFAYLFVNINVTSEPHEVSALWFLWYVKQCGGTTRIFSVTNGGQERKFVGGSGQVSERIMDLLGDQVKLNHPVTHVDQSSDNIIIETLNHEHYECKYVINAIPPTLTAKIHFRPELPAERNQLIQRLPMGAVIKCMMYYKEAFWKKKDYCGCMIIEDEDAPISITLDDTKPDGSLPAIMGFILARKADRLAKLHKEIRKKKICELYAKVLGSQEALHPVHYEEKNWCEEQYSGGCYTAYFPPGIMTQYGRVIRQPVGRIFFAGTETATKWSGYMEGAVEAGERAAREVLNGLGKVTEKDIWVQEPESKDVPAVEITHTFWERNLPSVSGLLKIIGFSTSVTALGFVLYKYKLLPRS

Mu-type opioid receptor = Mu-type opioid receptor (Homo sapiens, UniProt P35372)
Acetylcholinesterase = Acetylcholinesterase (Homo sapiens, UniProt P22303); assay type: functional
Histamine H3 receptor = Histamine H3 receptor (Homo sapiens, UniProt Q9Y5N1)
[5] = biological target: T3, Alpha-1A adrenergic receptor (Homo sapiens, UniProt P35348); assay type: functional, cell-based
T3 sequence (P35348 whole entry): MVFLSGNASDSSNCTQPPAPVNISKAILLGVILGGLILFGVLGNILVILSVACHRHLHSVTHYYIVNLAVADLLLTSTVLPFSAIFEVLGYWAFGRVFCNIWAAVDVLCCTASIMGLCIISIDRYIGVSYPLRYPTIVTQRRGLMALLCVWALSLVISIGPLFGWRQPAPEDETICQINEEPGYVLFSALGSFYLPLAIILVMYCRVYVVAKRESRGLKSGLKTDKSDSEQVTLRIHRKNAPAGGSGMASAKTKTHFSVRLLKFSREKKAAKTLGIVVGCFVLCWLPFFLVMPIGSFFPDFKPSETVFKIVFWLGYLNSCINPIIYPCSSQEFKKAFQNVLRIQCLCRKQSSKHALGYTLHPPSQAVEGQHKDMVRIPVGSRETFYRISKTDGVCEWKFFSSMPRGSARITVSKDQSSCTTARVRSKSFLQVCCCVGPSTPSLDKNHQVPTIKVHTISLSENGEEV

[6] = biological target: T3, Alpha-1A adrenergic receptor; assay type: functional, cell-based; remark: listed apart in the source
Adenosine receptor A3 = biological target: T4, Adenosine receptor A3 (Homo sapiens, UniProt P0DMS8)
T4 sequence (P0DMS8 whole entry): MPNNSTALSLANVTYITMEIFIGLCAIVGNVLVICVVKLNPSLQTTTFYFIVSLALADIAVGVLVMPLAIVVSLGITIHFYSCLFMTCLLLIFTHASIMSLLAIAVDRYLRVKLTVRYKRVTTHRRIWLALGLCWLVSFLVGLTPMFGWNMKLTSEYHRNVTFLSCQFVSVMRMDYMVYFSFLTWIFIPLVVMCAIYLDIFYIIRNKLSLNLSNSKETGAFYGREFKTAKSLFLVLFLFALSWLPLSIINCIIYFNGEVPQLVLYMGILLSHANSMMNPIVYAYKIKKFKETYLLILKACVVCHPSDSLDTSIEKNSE
Note: assay procedure not described here.

Sequence of cGMP-inhibited 3',5'-cyclic phosphodiesterase 3A (Q14432 whole entry): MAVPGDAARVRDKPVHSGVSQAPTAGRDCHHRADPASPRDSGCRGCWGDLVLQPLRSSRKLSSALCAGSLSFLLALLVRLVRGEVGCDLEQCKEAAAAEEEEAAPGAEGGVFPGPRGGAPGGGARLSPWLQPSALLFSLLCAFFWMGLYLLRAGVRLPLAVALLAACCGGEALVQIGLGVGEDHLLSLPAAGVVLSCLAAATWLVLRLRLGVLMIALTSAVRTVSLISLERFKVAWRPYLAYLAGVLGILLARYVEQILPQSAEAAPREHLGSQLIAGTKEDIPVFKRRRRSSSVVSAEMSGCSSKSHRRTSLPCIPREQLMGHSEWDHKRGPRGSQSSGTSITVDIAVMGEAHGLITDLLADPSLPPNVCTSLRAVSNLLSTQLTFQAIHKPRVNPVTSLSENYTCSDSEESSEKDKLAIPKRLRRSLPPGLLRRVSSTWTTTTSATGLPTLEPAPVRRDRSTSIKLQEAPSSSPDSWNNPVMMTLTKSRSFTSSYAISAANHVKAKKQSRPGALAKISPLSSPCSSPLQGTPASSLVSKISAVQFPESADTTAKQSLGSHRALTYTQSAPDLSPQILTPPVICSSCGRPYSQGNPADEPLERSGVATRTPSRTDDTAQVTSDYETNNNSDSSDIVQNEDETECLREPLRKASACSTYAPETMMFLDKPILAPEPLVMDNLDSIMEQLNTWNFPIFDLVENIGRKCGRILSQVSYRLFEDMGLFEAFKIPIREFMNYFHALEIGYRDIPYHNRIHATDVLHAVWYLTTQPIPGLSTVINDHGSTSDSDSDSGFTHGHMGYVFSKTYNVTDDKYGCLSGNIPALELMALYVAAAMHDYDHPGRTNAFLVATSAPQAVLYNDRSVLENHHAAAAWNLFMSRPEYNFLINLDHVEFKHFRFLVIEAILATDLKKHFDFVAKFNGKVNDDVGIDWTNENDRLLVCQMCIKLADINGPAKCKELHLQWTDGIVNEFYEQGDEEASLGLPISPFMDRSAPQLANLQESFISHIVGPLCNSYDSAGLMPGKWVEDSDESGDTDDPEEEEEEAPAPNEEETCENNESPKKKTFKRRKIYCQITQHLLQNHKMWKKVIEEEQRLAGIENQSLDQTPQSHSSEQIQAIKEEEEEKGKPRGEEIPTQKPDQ
Sequence of 3',5'-cyclic-AMP phosphodiesterase 4A (P27815 whole entry): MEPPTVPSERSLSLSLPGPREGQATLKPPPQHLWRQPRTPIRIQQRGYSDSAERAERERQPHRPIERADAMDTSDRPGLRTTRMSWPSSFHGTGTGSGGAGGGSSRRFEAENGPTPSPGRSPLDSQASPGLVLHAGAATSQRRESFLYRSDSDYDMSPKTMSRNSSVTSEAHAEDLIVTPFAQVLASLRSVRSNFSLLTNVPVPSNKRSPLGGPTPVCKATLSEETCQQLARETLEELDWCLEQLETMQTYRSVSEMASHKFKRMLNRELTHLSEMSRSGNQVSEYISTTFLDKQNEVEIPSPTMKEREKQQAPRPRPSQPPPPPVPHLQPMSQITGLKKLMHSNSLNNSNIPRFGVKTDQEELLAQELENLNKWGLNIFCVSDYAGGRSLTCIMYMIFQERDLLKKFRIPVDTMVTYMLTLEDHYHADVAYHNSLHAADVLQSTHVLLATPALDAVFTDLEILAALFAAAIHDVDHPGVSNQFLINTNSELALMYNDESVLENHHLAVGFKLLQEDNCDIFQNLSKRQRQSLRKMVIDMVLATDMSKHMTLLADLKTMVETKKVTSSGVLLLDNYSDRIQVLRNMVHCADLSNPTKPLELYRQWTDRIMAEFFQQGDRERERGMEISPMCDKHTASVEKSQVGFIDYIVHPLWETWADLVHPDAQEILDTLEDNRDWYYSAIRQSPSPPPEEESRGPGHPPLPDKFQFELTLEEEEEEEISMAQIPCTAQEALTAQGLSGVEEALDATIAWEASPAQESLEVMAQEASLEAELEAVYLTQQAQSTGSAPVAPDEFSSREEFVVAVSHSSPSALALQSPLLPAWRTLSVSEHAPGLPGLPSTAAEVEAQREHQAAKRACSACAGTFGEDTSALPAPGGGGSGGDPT
Sequence of Voltage-gated inwardly rectifying potassium channel KCNH2 (Q12809 whole entry): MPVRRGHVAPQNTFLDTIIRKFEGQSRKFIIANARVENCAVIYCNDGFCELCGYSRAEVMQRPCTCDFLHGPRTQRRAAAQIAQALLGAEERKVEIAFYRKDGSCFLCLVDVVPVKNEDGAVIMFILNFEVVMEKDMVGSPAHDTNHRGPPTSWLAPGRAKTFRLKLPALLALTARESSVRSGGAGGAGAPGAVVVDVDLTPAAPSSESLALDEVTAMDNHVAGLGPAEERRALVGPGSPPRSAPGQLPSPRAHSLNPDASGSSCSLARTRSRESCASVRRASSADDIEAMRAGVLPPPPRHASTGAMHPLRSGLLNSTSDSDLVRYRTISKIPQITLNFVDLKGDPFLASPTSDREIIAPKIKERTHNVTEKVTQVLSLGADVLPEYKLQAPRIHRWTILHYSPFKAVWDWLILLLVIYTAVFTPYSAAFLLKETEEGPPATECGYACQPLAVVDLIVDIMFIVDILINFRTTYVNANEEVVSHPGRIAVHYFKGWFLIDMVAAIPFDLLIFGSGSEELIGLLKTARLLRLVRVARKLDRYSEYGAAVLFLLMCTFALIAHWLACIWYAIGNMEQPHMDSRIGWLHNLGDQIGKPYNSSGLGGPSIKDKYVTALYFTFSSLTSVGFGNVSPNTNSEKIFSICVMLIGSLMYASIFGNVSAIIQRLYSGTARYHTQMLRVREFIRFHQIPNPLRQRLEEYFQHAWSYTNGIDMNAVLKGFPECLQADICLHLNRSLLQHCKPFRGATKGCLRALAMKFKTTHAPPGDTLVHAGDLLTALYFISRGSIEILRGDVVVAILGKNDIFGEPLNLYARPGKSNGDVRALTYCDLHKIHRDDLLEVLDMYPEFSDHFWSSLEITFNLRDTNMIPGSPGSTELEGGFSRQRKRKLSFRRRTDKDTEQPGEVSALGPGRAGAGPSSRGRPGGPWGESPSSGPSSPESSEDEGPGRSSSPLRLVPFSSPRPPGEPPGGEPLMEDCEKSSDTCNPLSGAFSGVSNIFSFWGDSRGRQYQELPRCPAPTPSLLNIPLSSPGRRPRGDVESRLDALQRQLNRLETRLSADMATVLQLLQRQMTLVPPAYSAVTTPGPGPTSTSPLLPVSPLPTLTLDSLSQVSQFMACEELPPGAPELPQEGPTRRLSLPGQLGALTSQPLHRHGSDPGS
Sequence of Histamine H3 receptor (Q9Y5N1 whole entry): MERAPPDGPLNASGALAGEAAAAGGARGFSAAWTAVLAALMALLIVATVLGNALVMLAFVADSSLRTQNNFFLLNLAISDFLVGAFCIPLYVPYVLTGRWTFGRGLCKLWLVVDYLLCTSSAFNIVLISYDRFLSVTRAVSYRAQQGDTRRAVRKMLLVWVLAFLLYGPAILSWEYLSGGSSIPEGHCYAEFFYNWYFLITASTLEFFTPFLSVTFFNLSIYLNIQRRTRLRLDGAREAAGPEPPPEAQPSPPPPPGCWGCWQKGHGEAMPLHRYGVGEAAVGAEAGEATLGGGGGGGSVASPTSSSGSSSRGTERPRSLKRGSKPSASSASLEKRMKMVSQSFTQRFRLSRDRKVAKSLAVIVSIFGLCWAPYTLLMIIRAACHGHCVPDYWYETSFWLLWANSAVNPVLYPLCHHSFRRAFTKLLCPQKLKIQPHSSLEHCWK
Sequence of Mu-type opioid receptor (P35372 whole entry): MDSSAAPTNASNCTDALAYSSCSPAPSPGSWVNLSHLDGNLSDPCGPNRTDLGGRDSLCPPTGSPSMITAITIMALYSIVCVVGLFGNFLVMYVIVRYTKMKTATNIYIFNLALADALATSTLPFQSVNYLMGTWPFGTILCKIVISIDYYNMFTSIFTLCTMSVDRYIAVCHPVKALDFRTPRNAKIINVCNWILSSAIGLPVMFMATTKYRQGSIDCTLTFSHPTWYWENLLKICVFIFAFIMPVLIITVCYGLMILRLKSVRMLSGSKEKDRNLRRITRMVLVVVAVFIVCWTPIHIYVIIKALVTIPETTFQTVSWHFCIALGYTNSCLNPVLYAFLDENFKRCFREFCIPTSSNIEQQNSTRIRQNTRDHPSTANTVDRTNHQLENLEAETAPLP
Sequence of Acetylcholinesterase (P22303 whole entry): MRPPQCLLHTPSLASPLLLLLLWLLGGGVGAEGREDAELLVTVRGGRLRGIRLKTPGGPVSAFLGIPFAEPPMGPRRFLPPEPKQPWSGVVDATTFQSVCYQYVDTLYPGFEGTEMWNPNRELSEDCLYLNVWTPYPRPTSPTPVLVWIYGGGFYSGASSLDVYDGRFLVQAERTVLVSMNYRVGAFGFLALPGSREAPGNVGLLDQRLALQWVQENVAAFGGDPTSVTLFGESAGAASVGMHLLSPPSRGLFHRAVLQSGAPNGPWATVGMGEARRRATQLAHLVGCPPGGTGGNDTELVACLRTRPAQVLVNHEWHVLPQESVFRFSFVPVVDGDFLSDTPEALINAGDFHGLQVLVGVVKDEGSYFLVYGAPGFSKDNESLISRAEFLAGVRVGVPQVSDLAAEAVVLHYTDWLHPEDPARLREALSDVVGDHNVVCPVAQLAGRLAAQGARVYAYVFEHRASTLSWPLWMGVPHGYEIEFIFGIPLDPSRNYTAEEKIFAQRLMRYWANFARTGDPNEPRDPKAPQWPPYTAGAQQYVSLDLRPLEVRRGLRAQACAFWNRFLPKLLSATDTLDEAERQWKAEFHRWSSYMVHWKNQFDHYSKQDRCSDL

| SMILES | AC50 [1] [µM] | AC50 (Thromboxane A2 receptor) [µM] | AC50 [2] [µM] | AC50 [3] [µM] | AC50 [4] [µM] | AC50 (Mu-type opioid receptor) [µM] | AC50 (Acetylcholinesterase) [µM] | AC50 (Histamine H3 receptor) [µM] | AC50 [5] [µM] | AC50 [6] [µM] | AC50 (Adenosine receptor A3) [µM] |
| --- | --- | --- | --- | --- | --- | --- | --- | --- | --- | --- | --- |
| CC(C)(Oc1ccc(Cl)cc1)C(=O)OCCOC(=O)c1cccnc1 [ETOFIBRATE] | > 30 | – | – | – | – | – | – | – | – | – | – |
| OC(CN1CCCCC1)c1cc(-c2ccccc2)on1 (stereo not given) [PERISOXAL] | – | > 30 | > 30 | > 30 | > 30 | 27.4 | > 30 | 15.8 | – | – | – |
| CC1(C)C[C@@H]1C(=O)N/C(=C\CCCCSC[C@H](N)C(=O)O)C(=O)O [CILASTATIN] | > 30 | > 30 | > 30 | > 30 | > 30 | > 30 | > 30 | > 30 | > 30 | > 30 | – |
| CN1CCCC(CC2c3ccccc3Sc3ccccc32)C1 (stereo not given) [METHIXENE] | 3.1 | – | > 30 | > 30 | > 30 | 13.9 | > 30 | 20.3 | 0.586 | > 30 | > 30 |
| CC(=O)Nc1ccc(/C=N/NC(N)=S)cc1 [AMITHIOZONE] | – | > 30 | > 30 | > 30 | > 10 | > 30 | > 30 | > 30 | – | – | – |
| CSCC[C@H](N)C(=O)O [METHIONINE] | – | > 30 | > 30 | > 30 | > 30 | > 30 | > 30 | > 30 | – | – | – |
| CC1(C)O[C@@H]2C[C@H]3[C@@H]4CCC5=CC(=O)C=C[C@]5(C)[C@@]4(F)[C@@H](O)C[C@]3(C)[C@]2(C(=O)CO)O1 [TRIAMCINOLONE ACETONIDE] | > 30 | – | – | – | – | – | – | – | – | – | – |
| C[C@]12CCC(=O)C=C1[C@@H]1C[C@@H]1[C@H]1[C@@H]3[C@@H]4C[C@@H]4[C@@]4(CCC(=O)O4)[C@@]3(C)CC[C@@H]12 [DROSPIRENONE] | > 30 | – | – | – | – | – | – | – | – | – | – |
| COc1ccc(-c2cc(=S)ss2)cc1 [ANETHOLTRITHION] | 23.3 | – | – | – | – | – | – | – | – | – | – |
| CN(C)CCC(O)(c1ccccc1)c1ccccc1Cl (stereo not given) [CHLOPHEDIANOL] | 3.4 | – | – | – | – | – | – | – | – | – | – |
| CC(C)N1CCN(c2ccc(OCC3COC(Cn4cncn4)(c4ccc(Cl)cc4Cl)O3)cc2)CC1 (stereo not given) [TERCONAZOLE] | 6.9 | – | > 30 | > 30 | > 30 | > 30 | 16.5 | 0.096 | 16 | > 30 | > 30 |
| COc1cc(C[C@@H]2NCCc3cc(O)c(O)cc32)cc(OC)c1OC [TRETOQUINOL] | > 30 | – | > 30 | > 30 | > 30 | 15.5 | > 30 | > 30 | > 30 | > 30 | > 30 |
| N=C(N)NC(=O)c1nc(Cl)c(N)nc1N [AMILORIDE] | – | > 30 | > 30 | > 30 | 5.24 | > 30 | > 30 | > 30 | > 30 | > 30 | – |
| CC(C)(C)NCC(O)COc1ccccc1C#N (stereo not given) [BUNITROLOL] | > 30 | > 30 | > 30 | > 30 | 10.4 | > 30 | > 30 | > 30 | > 30 | > 30 | – |
